Like-named read-outs stand apart in the source and are kept apart here.
What was measured:
[1] = system: T. cruzi (strain Silvio X10/7); parameters: method as in PMID 30001347; conditions: 16 days treatment of infected Vero cell monolayers; cited from earlier work
[2] = system: T. cruzi (Dm28c-Luc) intracellular amastigotes; test: Trypanocidal activity against intracellular amastigotes in infected Vero cell monolayers; format: cell-based, Trypanosoma cruzi; conditions: for IC90: read-out: Trypanocidal Activity Intracellular Amastigotes IC90; for Intracellular Amastigotes SI (CC50 of Vero cells/IC50): selectivity index vs Vero cells
Method: The susceptibility of intracellular amastigotes to pyrazole-thiazoline derivatives (series 1 and 2) was evaluated using 24 h T. cruzi-infected Vero cell monolayers (10:1 parasite/host cell ratio). Then, the cultures were washed with PBS to remove non-internalized parasites, and 200 μL of fresh medium with a serial dilution of pyrazole-thiazoline derivatives and Bz (0.41–100 µM) was added for 72 h at 37 °C.
(§1) After 72 h of treatment, luciferin (300 µg/mL) was added to the culture, and the viability of the parasites was assessed by reading the luminescent signal on the GloMax reader (Promega Corporation, Madison, WI, USA). Controls were also performed in non-toxic concentrations of DMSO (≤ 1%). The concentration that reduces the number of viable parasites by 50% (IC50) or 90% (IC90) was calculated by linear regression. The selectivity index (SI) was calculated as CC50/IC50 for each parasite form.

[3] = system: T. cruzi Dm28c-Luc in Vero cell cultures; test: Reversibility (washout) assay; format: cell-based, Trypanosoma cruzi; conditions: 72 h treatment then 72 h drug-free
Method: Then, the cultures were washed with PBS, and maintained for another 72 h at 37 °C in a drug-free medium. Trypomastigotes released in the culture supernatant were detected by transferring the culture medium to 96-well plates, followed by luciferin (300 µg/mL) addition. Viable intracellular amastigotes were also accessed by adding luciferin solution to the cell monolayers.

[4] = system: T. cruzi (Dm28c-Luc) trypomastigotes; test: microbe, parasite or virus in culture; format: cell-based, Trypanosoma cruzi
Method: The screening assays were performed with T. cruzi clone Dm28c (TcI) genetically modified to express luciferase gene (Dm28c-Luc), kindly provided by Dr. Cristina Henriques. Trypomastigotes were isolated from T. cruzi-infected Vero cell monolayers (10:1 parasites/host cell ratio). On the 4th day post-infection (dpi), free trypomastigotes in the culture supernatant were harvested, and the number of parasites/mL was quantified in a Neubauer chamber.
The trypanocidal activity of the pyrazole-thiazoline derivatives was evaluated against trypomastigote and intracellular amastigote forms of T. cruzi (Dm28c-Luc). Tissue-derived trypomastigotes (1 × 10^6 parasites/well) were incubated with pyrazole-thiazoline derivatives and Bz in different concentrations (0.41–100 µM) for 24 h at 37 °C in a humidified atmosphere and 5% CO2. The parasite viability was determined by the addition of luciferin (300 µg/mL), followed by luminescence detection on the GloMax microplate reader (Promega Corporation, Madison, WI, USA).
as §1

[5] = system: T. cruzi cysteine proteases (trypomastigote protein extract); test: Proteinase activity in solution (Z-FR-AMC); format: biochemical, Trypanosoma cruzi; conditions: for maximum inhibition of cysteine protease activity: up to 100 µM, Z-FR-AMC substrate
Method: Trypomastigote protein extracts (Dm28c-Luc; 10^8 parasites/mL) were obtained as previously described. The cysteine protease activity of the total protein extracts (5 µg) was measured using the reaction buffer (CH3COONa 10 mM, pH 5.0 containing 1 mM DTT), in the presence of the fluorogenic peptide substrate […], CBZ-L-Phenylalanyl-l-Arginine amide (Z -FR-AMC), and serial dilutions of pyrazole-thiazolines derivatives (100–6.25 µM). The samples were incubated for 45 min at room temperature. The variation in arbitrary fluorescence units (AFU), corresponding to the enzymatic cleavage of the fluorogenic substrate, was monitored in a SpectraMax M2e reader (Molecular Devices, Sunnyvale, CA, USA) for 1 h, with excitation values at 370 nm and emission values at 460 nm. Extracts incubated with 0.5% DMSO or with cysteine protease inhibitor E-64 were used as […]. […] The inhibitory activity was expressed as percentage inhibition.

[6] = system: T. cruzi (Dm28c-Luc)-infected Vero cell spheroids; test: 3D culture model: T. cruzi-infected Vero cell spheroids; format: cell-based, Trypanosoma cruzi; conditions: for DAPI staining fluorescence microscopy of infected microtissue: 100 μM; for parasite load, arbitrary luminescence unit (ALU): untreated ALU = 166,678 ± 22,824
Method: Tridimensional Vero cell cultures were obtained as previously described. Briefly, the isolated cells (2 × 10^4/well) were cultured in 96-well U-bottom plates previously coated with 1% agarose. The spheroids were kept for 5 days at 37 °C in RPMI 1640 medium supplemented with 10% FBS for complete three-dimensional organization. Both 2D and 3D culture models were used for trypanocidal activity assays.
Vero cell spheroids were infected for 24 h with 2 × 10^5 trypomastigotes (Dm28c-Luc). […] Parasite load was assessed by the luminescence reaction after adding the luciferase substrate (luciferin 300 µg/mL). In addition, fluorescence microscopy images of untreated and treated T. cruzi-infected spheroids were acquired after fixing the cultures with 4% paraformaldehyde in PBS and 4′,6-diamidino-2-phenylindole (DAPI) staining, a DNA dye. The samples were observed under the Zeiss Axio Imager M2 fluorescence microscope (Carl Zeiss, Baden-Württemberg, Germany).

[7] = Cytotoxicity in vitro assay (CellTiter-Glo); format: cell-based; conditions: African green monkey, Vero cells, mean ± SD
Method: (§2) Vero cells, obtained from the Rio de Janeiro Cell Bank (BCRJ code 0245), were dissociated with trypsin–EDTA solution (0.025%), and maintained in RPMI 1640 medium supplemented with 10% fetal bovine serum (FBS) at 37 °C in a humidified atmosphere of 5% CO2.
(§3) The compound toxicity was evaluated in Vero cell cultures. Briefly, Vero cells were seeded in 96-well white culture plates at a density of 1.5 × 10^4 cells/well for 24 h at 37 °C and 5% CO2. Thereafter, the cell monolayers were washed with phosphate-buffered saline (PBS) and 200 μL of fresh medium with a serial dilution of the pyrazole-thiazoline derivatives and Bz (1.9–500 µM) added. The cell viability was determined by luminescent assay using the CellTiter-Glo Kit (Promega Corporation, Madison, WI, USA) based on the ATP level. After 72 h of treatment, 20 μL of CellTiter-Glo solution was added per well, and cultures were kept for 2 min under agitation. The luminescent signal was read on the GloMax reader (Promega Corporation, Madison, WI, USA). The concentration of compounds that reduced 50% of cell viability (CC50) was calculated by linear regression. At least three independent assays were performed in duplicate.

Vero cells = test: Cytotoxicity in vitro assay (CellTiter-Glo); format: cell-based; conditions: 72 h, mean ± SD
Method: as §2, §3

[8] = Dm28c-Luc in Vero cells, 72 h, mean ± SD, read-out: Trypanocidal Activity Intracellular Amastigotes IC50
[9] = Trypanosoma cruzi, Vero, 72 h, Dm28c-Luc in Vero cells, 72 h, mean ± SD, read-out: Trypanocidal Activity Intracellular Amastigotes IC50
[10] = Trypanosoma cruzi, Vero, pIC50 = −log IC50, Dm28c-Luc clone, read-out: Intracellular Amastigotes pIC50 (converted)
[11] = Trypanosoma cruzi, Dm28c-Luc in Vero cells, 72 h, mean ± SD
[12] = Trypanosoma cruzi, Vero, 100 µM, read-out: inhibition of cell monolayer infection (intracellular amastigotes) after washout
[13] = Dm28c-Luc, 24 h, mean ± SD; read-out: Trypanocidal Activity Trypomastigotes IC50
[14] = Trypanosoma cruzi, 24 h, Dm28c-Luc, 24 h, mean ± SD; read-out: Trypanocidal Activity Trypomastigotes IC50
[15] = Trypanosoma cruzi; Dm28c-Luc, 24 h, mean ± SD; read-out: Trypanocidal Activity Trypomastigotes IC90
[16] = 72 h, concentration higher than IC90 (100 μM in Figure 6 legend)
[17] = selectivity index vs Vero cells

| Structure (SMILES) | IC50 [2, 9] | IC50 [2, 10] | IC90 [2, 11] | IC50 [4, 14] | IC90 [4, 15] | maximum inhibition of cysteine protease activity [5] | DAPI staining fluorescence microscopy of infected microtissue [6] | parasite load, arbitrary luminescence unit (ALU) [6, 16] | CC50 at 72 h [7] | also measured |
| --- | --- | --- | --- | --- | --- | --- | --- | --- | --- | --- |
| CC[C@@H]([C@H](C)O)n1ncn(-c2ccc(N3CCN(c4ccc(OC[C@@H]5CO[C@@](Cn6cncn6)(c6ccc(F)cc6F)C5)cc4)CC3)cc2)c1=O [posaconazole] |  |  |  |  |  |  |  |  |  | parasite relapse / clearance after prolonged treatment [1]: unable to achieve parasite clearance |
| Clc1ccc(-n2cc(C3=NCCS3)cn2)cc1Cl [Compound 2e, 2-(1-(3,4-dichlorophenyl)-1H-pyrazol-4-yl)-4,5-dihydrothiazole] | < 10 µM | < 6.92 µM | 30.4 ± 3.7 µM | ≤ 2.1 µM | 6.9 ± 2 µM | ≤ 10% | reduction in parasite load | 15,110 ± 1990 ALU |  | IC50 [2, 8]: 7.84 ± 1 µM; inhibition at 100 µM [3, 12]: 69%; IC50 [4, 13]: 1.9 ± 0.4 µM |
| Brc1ccc(-n2cc(C3=NCCS3)cn2)cc1 [Compound 2i, 2-(1-(4-bromophenyl)-1H-pyrazol-4-yl)-4,5-dihydrothiazole] | < 10 µM | < 6.92 µM | 27.1 ± 3.6 µM | ≤ 2.1 µM | 13.3 ± 2.8 µM | ≤ 10% | reduction in parasite load | 25,788 ± 2776 ALU |  | IC50 [2, 8]: 6.8 ± 1.1 µM; Intracellular Amastigotes SI (CC50 of Vero cells/IC50) [2]: 31.8; inhibition at 100 µM [3, 12]: 89%; IC50 [4, 13]: 2.1 ± 0.9 µM |
| Clc1ccc(-n2cc(C3=NCCS3)cn2)c(Cl)c1 [Compound 2c, 2-(1-(2,4-dichlorophenyl)-1H-pyrazol-4-yl)-4,5-dihydrothiazole] |  |  | 16.9 ± 2.5 µM |  | 2.8 ± 0.6 µM | ≤ 10% |  |  | > 100 µM | reduction of release of trypomastigotes in the culture supernatant after washout ([3]; 50 µM): 85%; inhibition at 50 µM ([3]; Trypanosoma cruzi, Vero, 50 µM, read-out: inhibition of cell monolayer infection (intracellular amastigotes) after washout): 78%; CC50 (Vero cells): 107 ± 11.4 µM; parasite load, arbitrary luminescence unit (ALU) ([6]; 25 µM, 72 h): 3329 ± 250 ALU; parasite load, arbitrary luminescence unit (ALU) ([6]; 50 µM, 72 h): 1648 ± 343 ALU; inhibition compared to untreated T. cruzi-infected microtissue ([6]; 25 and 50 µM, 72 h): approximately 98% |
| CC(C)C[C@H](NC(=O)[C@H]1O[C@@H]1C(=O)O)C(=O)NCCCCN=C(N)N [Compound E-64, E-64, reference compound] |  |  |  |  |  |  |  |  |  | inhibition of cysteine protease activity ([5]; from the lowest concentration analyzed (6.25 µM)): more than 80% |
| O=C(Cn1ccnc1[N+](=O)[O-])NCc1ccccc1 [Bz, benznidazole, reference compound] |  |  |  |  | 95.9 ± 4.7 µM |  | drastic reduction in the infection profile | 20,024 ± 2796 ALU | > 500 µM | IC50 ([2]; Trypanosoma cruzi, Vero, 72 h, read-out: Trypanocidal Activity Intracellular Amastigotes IC50): 3.3 ± 1.1 µM; IC90 ([2]; Trypanosoma cruzi, Vero, 72 h): 13.7 ± 4.2 µM; IC50 ([2]; Trypanosoma cruzi, Vero, read-out: Intracellular Amastigotes pIC50 (converted)): 3.31 µM; parasite clearance in supernatant and cell monolayers after washout ([3]; 100 µM): sustained the parasite clearance; IC50 ([4]; Trypanosoma cruzi; Dm28c-Luc, 24 h, mean ± SD; read-out: Trypanocidal Activity Trypomastigotes IC50): 19.6 ± 2.3 µM; Trypomastigotes SI (CC50 of Vero cells/IC50) [4, 17]: >18.9; parasite relapse / clearance after prolonged treatment [1]: prevention of spontaneous parasite relapse for up to 60 days |
| c1ccc(-n2cc(C3=NCCS3)cn2)cc1 [Compound 2a, 2-(1-phenyl-1H-pyrazol-4-yl)-4,5-dihydrothiazole] | 10.7 ± 2.2 µM | 10.7 µM | 89 ± 2.6 µM | 1.1 ± 0.3 µM | 10.4 ± 1.1 µM |  |  |  | 187 ± 12.7 µM | Intracellular Amastigotes SI (CC50 of Vero cells/IC50) [2]: 17.4; Trypomastigotes SI (CC50 of Vero cells/IC50) [4, 17]: 166.8; melting point: 112 to 114 °C |
